Source: patent publication US20250326753A1, “DUAL CXCR4-BTK INHIBITORS” (X4 Pharmaceuticals, Inc., priority 2022, published 2025)

Target: T1, BTK (Bruton tyrosine kinase) (Homo sapiens, UniProt Q06187)
T1 construct: GST or His (the text leaves open which); purchased Reaction Biology Europe GmbH Lot 012,11; host or cells: Sf9 insect cells or E. coli (not resolved)
Assay: BTK screening assay (33PanQinase Activity Assay, radiometric)
Type: biochemical
Conditions: not given
Method: Inhibition of BTK activity was evaluated using a radiometric protein kinase assay (33PanQinase® Activity Assay) to measure the activity of BTK (Bruton tyrosine kinase).
Kinase assays were performed in 96-well ScintiPlates™ from Perkin Elmer (Boston, MA, USA) in a 50 μL reaction volume. The reaction cocktail was pipetted in four steps in the following order: 10 μL of non-radioactive ATP solution (in H2O); 25 μL of assay buffer/[γ-^33P]-ATP mixture; 5 μL of compound test sample in 10% DMSO; 10 μL of enzyme/substrate mixture.
BTK kinase was expressed in Sf9 insect cells or in E. coli as recombinant GST-fusion proteins or His-tagged proteins, either as full-length or enzymatically active fragments from human cDNAs, and purified by either GSH-affinity chromatography or immobilized metal. Purity was examined by SDS-PAGE/Coomassie staining, and identity confirmed by mass spectroscopy.
The reaction cocktails were incubated at 30° C. for 60 minutes. The reaction was stopped with 50 μL of 2% (v/v) H3PO4, plates were aspirated and washed two times with 200 μL 0.9% (w/v) NaCl. Incorporation of ^33Pi (counting of “cpm”) was determined with a microplate scintillation counter (Microbeta, Wallac).
The median value of the counts in wells containing assay buffer without enzyme, and without test compound was defined as “low control.” This value reflects unspecific binding of radioactivity to the plate in the absence of a protein kinase but in the presence of the substrate. The median value of the counts in wells containing assay buffer without test compound was defined as the “high control,” i.e. full activity in the absence of any inhibitor. The difference between high and low control was taken as 100% activity. Residual activity (in %) was calculated using the following formula: Res. Activity (%)=100×[(cpm of compound-low control)/(high control-low control)].
The fitting method used was a least-squares fit.

T1 sequence (Q06187 whole entry): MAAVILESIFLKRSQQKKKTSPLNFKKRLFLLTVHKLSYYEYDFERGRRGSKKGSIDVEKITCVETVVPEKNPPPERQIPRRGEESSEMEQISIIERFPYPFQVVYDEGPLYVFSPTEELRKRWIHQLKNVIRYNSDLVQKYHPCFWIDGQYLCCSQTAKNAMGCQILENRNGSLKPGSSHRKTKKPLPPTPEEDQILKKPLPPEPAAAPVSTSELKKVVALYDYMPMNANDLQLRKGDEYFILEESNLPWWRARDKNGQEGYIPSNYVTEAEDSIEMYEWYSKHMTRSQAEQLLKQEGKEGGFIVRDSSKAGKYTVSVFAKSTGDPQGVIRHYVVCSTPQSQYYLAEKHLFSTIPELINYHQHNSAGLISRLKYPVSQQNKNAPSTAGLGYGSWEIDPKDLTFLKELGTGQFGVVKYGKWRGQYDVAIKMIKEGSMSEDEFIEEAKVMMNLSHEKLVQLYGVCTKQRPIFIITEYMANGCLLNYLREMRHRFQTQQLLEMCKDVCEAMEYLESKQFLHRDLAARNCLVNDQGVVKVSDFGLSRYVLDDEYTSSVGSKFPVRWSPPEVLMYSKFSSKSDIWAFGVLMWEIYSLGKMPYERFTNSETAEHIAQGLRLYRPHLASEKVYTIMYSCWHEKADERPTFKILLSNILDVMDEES

IC50 [nM]	Structure (SMILES)
> 2500	Cc1cccnc1[C@H]1CCC[C@@H](c2ncccc2C)N1CCNC(=O)c1cc2c(-c3cccc(NC(=O)c4ccccc4)c3C)ncnc2[nH]1 [Compound I-74]

Same assay, conditions: Inhibition of BTK, radiometric 33PanQinase Activity Assay, 3 μM ATP, 10 concentrations in singlicate, top 10 μM; read-out: 33PanQinase ® Radiometric IC50

IC50 [nM]	Structure (SMILES)
1 to 100	Cc1cc(-c2ncnc3[nH]c(C(=O)NCCCCN4[C@@H](c5ncccc5C)CCC[C@H]4c4ncccc4C)cc23)ccc1CNC(=O)c1ccccc1 [Compound I-47]
100 to 1000	Cc1cc(-c2ncnc3[nH]c(C(=O)NCCN4[C@@H](c5ncccc5C)CCC[C@H]4c4ncccc4C)cc23)ccc1CNC(=O)c1cc(F)cc(F)c1 [Compound I-84]
> 2500	Cc1cccnc1[C@H]1CCC[C@@H](c2ncccc2C)N1CCNC(=O)c1cc2c(-c3cccc(NC(=O)c4ccc(F)cc4)c3C)ncnc2[nH]1 [Compound I-87]
1 to 100	Cc1cc(-c2ncnc3[nH]c(C(=O)NCCCN4[C@@H](c5ncccc5C)CCC[C@H]4c4ncccc4C)cc23)ccc1CNC(=O)c1ccccc1 [Compound I-50]
100 to 1000	Cc1cc(-c2ncnc3[nH]c(C(=O)NCCCN4[C@@H](c5ncccc5C)CCC[C@H]4c4ncccc4C)cc23)ccc1CNC(=O)c1cc(F)cc(F)c1 [Compound I-85]
100 to 1000	Cc1cc(-c2ncnc3[nH]c(C(=O)NCCN4[C@@H](c5ncccc5C)CCC[C@H]4c4ncccc4C)cc23)ccc1CNC(=O)c1ccc(F)cc1 [Compound I-80]
1 to 100	CCc1ccc(C(=O)NCc2ccc(-c3ncnc4[nH]c(C(=O)NCCCCN5[C@@H](c6ncccc6C)CCC[C@H]5c5ncccc5C)cc34)cc2C)cc1 [Compound I-48]
100 to 1000	Cc1cc(-c2ncnc3[nH]c(C(=O)NCCN4[C@@H](c5ncccc5C)CCC[C@H]4c4ncccc4C)cc23)ccc1CNC(=O)c1cccc(F)c1 [Compound I-81]
100 to 1000	Cc1cc(-c2ncnc3[nH]c(C(=O)NCCCN4[C@@H](c5ncccc5C)CCC[C@H]4c4ncccc4C)cc23)ccc1CNC(=O)c1cccc(F)c1 [Compound I-82]
1 to 100	Cc1cc(-c2ncnc3[nH]c(C(=O)NCCCCN4[C@@H](c5ncccc5C)CCC[C@H]4c4ncccc4C)cc23)ccc1CNC(=O)c1ccc(F)cc1 [Compound I-49]
1 to 100	CCc1ccc(C(=O)NCc2ccc(-c3ncnc4[nH]c(C(=O)NCCCN5[C@@H](c6ncccc6C)CCC[C@H]5c5ncccc5C)cc34)cc2C)cc1 [Compound I-51]
> 2500	Cc1cccnc1[C@H]1CCC[C@@H](c2ncccc2C)N1CCCCNC(=O)c1cc2c(-c3cccc(NC(=O)c4ccccc4)c3C)ncnc2[nH]1 [Compound I-76]
> 2500	Cc1cccnc1[C@H]1CCC[C@@H](c2ncccc2C)N1CCCNC(=O)c1cc2c(-c3cccc(NC(=O)c4ccc(F)cc4)c3C)ncnc2[nH]1 [Compound I-88]
100 to 1000	Cc1cc(-c2ncnc3[nH]c(C(=O)NCCCCN4[C@@H](c5ncccc5C)CCC[C@H]4c4ncccc4C)cc23)ccc1CNC(=O)c1cc(F)cc(F)c1 [Compound I-86]
> 2500	Cc1cccnc1[C@H]1CCC[C@@H](c2ncccc2C)N1CCCCNC(=O)c1cc2c(-c3cccc(NC(=O)c4ccc(F)cc4)c3C)ncnc2[nH]1 [Compound I-89]
1 to 100	Cc1cc(-c2ncnc3[nH]c(C(=O)NCCCN4[C@@H](c5ncccc5C)CCC[C@H]4c4ncccc4C)cc23)ccc1CNC(=O)c1ccc(F)cc1 [Compound I-52]
100 to 1000	Cc1cc(-c2ncnc3[nH]c(C(=O)NCCCCN4[C@@H](c5ncccc5C)CCC[C@H]4c4ncccc4C)cc23)ccc1CNC(=O)c1cccc(F)c1 [Compound I-83]

Second part, the compound before the results:

Structure (SMILES)	IC50 [nM]
Cc1cccnc1[C@H]1CCC[C@@H](c2ncccc2C)N1CCCNC1CN(C(=O)c2cc3c(-c4cccc(NC(=O)c5ccccc5)c4C)ncnc3[nH]2)C1 [Compound I-78]	> 2500
Cc1cc(-c2ccnc(Nc3cnn(CCCN4[C@@H](c5ncccc5C)CCC[C@H]4c4ncccc4C)c3)n2)ccc1CNC(=O)N1CC(OC(F)(F)F)C1 [Compound I-57]	1 to 100
COC1CN(C(=O)NCc2ccc(-c3ccnc(Nc4cnn(CCCN5[C@@H](c6ncccc6C)CCC[C@H]5c5ncccc5C)c4)n3)cc2C)C1 [Compound I-54]	1 to 100
Cc1cccc(Oc2ccc(C(=O)c3c[nH]c4ncnc(N[C@@H]5CC[C@@H](C(=O)NCCCCN6[C@@H](c7ncccc7C)CCC[C@H]6c6ncccc6C)OC5)c34)c(Cl)c2)c1 [Compound I-59]	1 to 100
Cc1cccnc1[C@H]1CCC[C@@H](c2ncccc2C)N1CCCNC1CN(C(=O)c2cc3c(-c4cccc(NC(=O)c5ccc(F)cc5)c4C)ncnc3[nH]2)C1 [Compound I-91]	> 2500
Cc1cccnc1[C@H]1CCC[C@@H](c2ncccc2C)N1CCN1CCN(C(=O)c2ccc(-c3cc4c(-c5cccc(NC(=O)c6ccc(F)cc6)c5C)ncnc4[nH]3)cc2)CC1 [Compound I-67]	1 to 100
Cc1cccnc1C1CCCCN1CCN1CCN(C(=O)c2ccc(-c3cc4c(-c5cccc(NC(=O)c6ccccc6)c5C)ncnc4[nH]3)cc2)CC1 (centres unmarked) [Compound I-73]	100 to 1000
Cc1cccnc1[C@H]1CCC[C@@H](c2ncccc2C)N1CCCCNC1CN(C(=O)c2cc3c(-c4cccc(NC(=O)c5ccc(F)cc5)c4C)ncnc3[nH]2)C1 [Compound I-92]	1000 to 2500
Cc1cccnc1[C@H]1CCC[C@@H](c2ncccc2C)N1CCN1CCN(C(=O)c2ccc(-c3cc4c(-c5cccc(NC(=O)c6ccccc6F)c5C)ncnc4[nH]3)cc2)CC1 [Compound I-68]	1 to 100
CCOC1CN(C(=O)NCc2ccc(-c3ccnc(Nc4cnn(CCCN5[C@@H](c6ncccc6C)CCC[C@H]5c5ncccc5C)c4)n3)cc2C)C1 [Compound I-55]	1 to 100
Cc1cccnc1[C@H]1CCC[C@@H](c2ncccc2C)N1CCN1CCN(C(=O)[C@]23C[C@](c4cc5c(-c6cccc(NC(=O)c7ccccc7)c6C)ncnc5[nH]4)(C2)C3)CC1 [Compound I-71]	1000 to 2500
Cc1cccnc1[C@H]1CCC[C@@H](c2ncccc2C)N1CCCNC(=O)c1cc2c(-c3cccc(NC(=O)c4ccccc4)c3C)ncnc2[nH]1 [Compound I-75]	> 2500
Cc1cccnc1[C@H]1CCC[C@@H](c2ncccc2C)N1CCN1CCN(C(=O)c2ccc(-c3cc4c(-c5cccc(NC(=O)C(C)(C)C)c5C)ncnc4[nH]3)cc2)CC1 [Compound I-70]	100 to 1000
Cc1cccnc1[C@H]1CCC[C@@H](c2ncccc2C)N1CCNC1CN(C(=O)c2cc3c(-c4cccc(NC(=O)c5ccc(F)cc5)c4C)ncnc3[nH]2)C1 [Compound I-90]	> 2500
Cc1cc(-c2ccnc(Nc3cnn(CCCN4[C@@H](c5ncccc5C)CCC[C@H]4c4ncccc4C)c3)n2)ccc1CNC(=O)N1CC(OC(C)(C)C)C1 [Compound I-56]	1 to 100
Cc1cccnc1[C@H]1CCC[C@@H](c2ncccc2C)N1CCNC1CN(C(=O)c2cc3c(-c4cccc(NC(=O)c5ccccc5)c4C)ncnc3[nH]2)C1 [Compound I-77]	> 2500
Cc1cc(-c2ccnc(Nc3cnn(CCCCN4[C@@H](c5ncccc5C)CCC[C@H]4c4ncccc4C)c3)n2)ccc1CNC(=O)N1CC(OC(C)C)C1 [Compound I-29]	1 to 100
Cc1ccc(Oc2ccc(C(=O)c3c[nH]c4ncnc(N[C@@H]5CC[C@@H](C(=O)NCCCCN6[C@@H](c7ncccc7C)CCC[C@H]6c6ncccc6C)OC5)c34)c(Cl)c2)cc1 [Compound I-58]	1 to 100
CCOC1CN(C(=O)NCc2ccc(-c3ccnc(Nc4cnn(CCN5[C@@H](c6ncccc6C)CCC[C@H]5c5ncccc5C)c4)n3)cc2C)C1 [Compound I-53]	1 to 100
CC(=O)Nc1cccc(-c2ncnc3[nH]c(-c4ccc(C(=O)N5CCN(CCN6[C@@H](c7ncccc7C)CCC[C@H]6c6ncccc6C)CC5)cc4)cc23)c1C [Compound I-69]	1 to 100
Cc1ccccc1Oc1ccc(C(=O)c2c[nH]c3ncnc(N[C@@H]4CC[C@@H](C(=O)NCCCCN5[C@@H](c6ncccc6C)CCC[C@H]5c5ncccc5C)OC4)c23)c(Cl)c1 [Compound I-60]	1 to 100
Cc1cccnc1[C@H]1CCC[C@@H](c2ncccc2C)N1CCCCNC1CN(C(=O)c2cc3c(-c4cccc(NC(=O)c5ccccc5)c4C)ncnc3[nH]2)C1 [Compound I-79]	> 2500

Target: CXCR4 (Homo sapiens, UniProt P61073)
Sequence (P61073 whole entry): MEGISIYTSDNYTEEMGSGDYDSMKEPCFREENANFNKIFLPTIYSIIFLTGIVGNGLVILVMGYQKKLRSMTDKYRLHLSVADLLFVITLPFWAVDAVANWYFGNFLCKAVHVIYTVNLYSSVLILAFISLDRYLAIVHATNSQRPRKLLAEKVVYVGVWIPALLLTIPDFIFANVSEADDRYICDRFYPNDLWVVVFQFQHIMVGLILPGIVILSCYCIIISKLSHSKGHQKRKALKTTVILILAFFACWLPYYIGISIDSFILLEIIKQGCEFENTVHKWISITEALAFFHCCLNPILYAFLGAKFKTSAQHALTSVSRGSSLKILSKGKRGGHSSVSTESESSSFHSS
Assay: Intracellular CXCL-12-induced calcium mobilization assay (FLIPR), U87.CXCR4 cells
Type: cell-based
Parameters: expressed in transfected cells; host or cells: U87 (U87.CXCR4)
Conditions: CXCL-12 25-50 ng/ml, read-out: IC50 CXCL-12 Ca2+ flux U87.CXCR4+
Method: Intracellular calcium mobilization induced by chemokines or chemokine-derived peptides were evaluated using a calcium responsive fluorescent probe and a FLIPR system. The CXCR-4 transfected U87 cell line (U87.CXCR4) cells were seeded in gelatine-coated black-wall 96-well plates at 20,000 cells per well and incubated for 12 hours. Cells were then loaded with the fluorescent calcium probe Fluo-2 acetoxymethyl at 4 μM final concentration in assay buffer (Hanks' balanced salt solution with 20 mM HEPES buffer and 0.2% bovine serum albumin, pH 7.4) for 45 min at 37° C. The intracellular calcium mobilization induced by the CXCL-12 (25-50 ng/ml) was then measured at 37° C. by monitoring the fluorescence as a function of time in all the wells simultaneously using a fluorometric imaging plate reader (FLIPR Tetra, Molecular Devices).

IC50 [nM]	Structure (SMILES)
> 2500	Cc1cc(-c2ccnc(Nc3cnn(CCCCN4[C@@H](c5ncccc5C)CCC[C@H]4c4ncccc4C)c3)n2)ccc1CNC(=O)N1CC(OC(C)C)C1 [Compound I-29]
